The values below are quoted from earlier work in patent publication US20150150473A1, “Drug-Enhanced Neurofeedback” (McLean Hospital Corporation, priority 2008, published 2015).

For the data set the following is noted: in vivo.

On to `N[C@@H]1CON=C1O` [DCS, d-cycloserine], for which the half-life entry is listed as “approximately 10 hours”.
